Patent US3941842A, “P,P'-Disubstituted α-trichloromethylbenzylanilines” (priority 1972, dated 1976)
Entries after “also recorded” stand apart in the source; their conditions may differ. Where two headings read alike, the source gives them in different places.

Experiments:
[1] = Model ecosystem: distribution, ecological magnification and Biodegradability Index; conditions: for biodegradability (in words): model ecosystem comparison; for ecological magnification (E.M.): ratio of parent material in fish to concentration in water; for Concentration of ethoxyaniline equivalents in Culex (mosquito) / Concentration of ethoxyaniline equivalents in Gambusia (fish) / Concentration of ethoxyaniline equivalents in H2O / Concentration of ethoxyaniline equivalents in Oedogonium (algae) / Concentration of ethoxyaniline equivalents in Physa (snail): 5.0 mg 3H-ethoxyaniline to Sorghum
Text: After the amounts of the various metabolites have been calculated and a determination is made as to which of the metabolites are to be designated as "polar" and which are to be designated as "non-polar", a Biodegradability Index (amount of polar metabolites/amount of nonpolar metabolites) may be calculated. Remembering that nonpolar compounds, such as DDT are readily soluble in the fatty tissues, but are not readily soluble in water based solutions, and that the cell fluid is essentially a water based solution, the lower the Biodegradability Index, the lower the amount of biodegradability of the compound. The higher the amount of polarity, the greater the likelihood that the polar compound will dissolve in water, a very polar compound, and be eliminated from the cell.
The environmental fate of any new pesticide is a factor of paramount importance in determining how and where it might be used. The behavior of ^3 H-α-trichloromethyl-p-ethoxybenzyl-p-ethoxyaniline has been studied by the model ecosystem technique following application of 5.0 mg. of labeled compound to Sorghum plants. A summary of
metabolites from the organisms in the model ecosystem after 33 days were
identified by cochromatography with standards of known constitution, by
appropriate chromogenic reagents, and by high-resolution mass
spectrometry. The data of Table IV indicate the O-dealkylation of
Food Chem. 1 (1972). Ethoxychlor was found in the snail to 58.6 ppm and in the fish to 0.92 ppm, along with its ethylene and the mono- and bis-phenols formed by O-dealkylation. The ecological magnification (E.M.) of ethoxychlor, defined as the ratio of the parent material in the fish to the concentration in the water, was 1500-fold as compared with an E.M. of only 0.7-fold for the ethoxyaniline.
Comparing the Biodegradability Indices (B.I.=total recovered polar metabolites/total recovered nonpolar metabolites) the values are 0.44 for ethoxychlor and 2.0 for ethoxyaniline.

[2] = cited from earlier work
[3] = system: insects; conditions: background; cited from earlier work
[4] = system: multifunction oxidase (MFO) enzymes; conditions: background; cited from earlier work
[5] = background; cited from earlier work
[6] = background; cited from earlier work; remark: listed apart in the source
[7] = system: Salt-marsh caterpillar; test: Metabolism of 3H-ethoxyaniline by salt-marsh caterpillar larvae; conditions: for Salt-marsh caterpillar, percent 3H in Excreta / Salt-marsh caterpillar, percent 3H in Homogenate: 24 hr after feeding 0.5 mg 3H-ethoxyaniline (compound III)
Protocol: (§1) The compounds of the present invention were tested for insecticidal activity by standard methods, and compared with the insecticidal activities of DDT and symmetrical analogs of DDT, such methoxychlor. Toxicological methods for the determination of the topical LD50 values to adult female SNAIDM and RSP houseflies, Musca domestica L. and to Phormia regina, and LC50 values to Culex pipiens quinquefasciatus Say, and Anopheles albimanus Weid mosquitoes were described by Metcalf el al., 44 Bull. World Health Org. 363 (1971). The methods for evaluation of metabolism by mouse liver homogenate and by female RSP housefly and salt-marsh caterpillar larvae Estigmene acrea Drury, were described by Kapoor et al., 18 J. Agr. Food Chem. 1145 (1970). The techniques for model eocsystem evluation were described by Metcalf et al., 5 J. Environ. Sci. Tech. 709 (1971).
(§2) The biodegradability of an insecticide may be measured by administering measured doses of a tritium labeled test insecticide to a subject. Some time later the subject is sacrificed, liquefied, and a sample of the liquefied insect is placed on a thin layer chromotagraphy (tlc) plate. The plate is developed in a suitable solvent and Rf values of the various compounds contained in the sample are measured against known Rf values of previously synthesized theoretical metabolic breakdown products. The amount of each metabolite present may thus be measured by measuring the ^3 H at each separately resolved spot on the tlc plate. A permanent record may be made by exposing film to the plate to form a ratioautograph.

[8] = system: Female housefly; test: Metabolism of 3H-ethoxyaniline by female RSP housefly; conditions: for Female housefly, percent 3H in Excreta / Female housefly, percent 3H in Homogenate: 24 hr after topical 1.0 μg 3H-ethoxyaniline (compound III)
Protocol: as §1, §2

[9] = Metabolism of 3H-labeled compound by mouse liver homogenate; conditions: for Mouse liver, percent 3H in homogenate: 0.01 μM 3H-labeled compound III, 1 hr incubation, NADPH and nicotinamide
Protocol: as §1, §2

[10] = system: Musca domestica Rsp; test: Topical LD50 to adult female RSP houseflies
[11] = system: Anopheles albimanus larvae; test: LC50 to Anopheles albimanus larvae; type: in vivo, Anopheles albimanus Weid
Text: (§3) World Health Org. 363 (1971). […] Food Chem. 1145 (1970). […] Sci. Tech. 709 (1971). The results are detailed in Table II. ##SPC1##

[12] = system: Phormia regina; test: whole plant or invertebrate; conditions: topical
[13] = system: Musca domestica Snaidm; test: Topical LD50 to adult female SNAIDM houseflies
[14] = system: Culex fatigans larvae; test: LC50 to Culex fatigans larvae; type: in vivo, Culex pipiens quinquefasciatus Say
Text: as §3

[15] = model ecosystem, Kapoor et al., 20(1) J. Agr. Food Chem. 1 (1972)
[16] = synergistic ratio: LD50 alone/LD50 synergized with piperonyl butoxide
[17] = female RSP housefly, topical 1.0 μg, 24 hr

SMILES: CCOc1ccc(C(c2ccc(OCC)cc2)C(Cl)(Cl)Cl)cc1 [Ethoxychlor, 2,2-bis(p-ethoxyphenyl)-1,1,1-trichloroethane]
- biodegradability (in words) [1]: substantially biodegradable; also recorded: substantially more biodegradable than DDT
- concentration found in the fish [2, 15]: 0.92 ppm
- concentration found in the snail [2, 15]: 58.6 ppm
- ecological magnification (E.M.) ([2]; ratio of parent material in fish to concentration in water, Kapoor et al.): 1500 fold
- Biodegradability Index (B.I.) ([2]; total recovered polar/total recovered nonpolar metabolites, ethoxychlor evaluated by Kapoor et al.): 0.44

SMILES: Cc1ccc(C(c2ccc(C)cc2)C(Cl)(Cl)Cl)cc1 [methylchlor, 1,1,1-trichloro-2,2-bis(p-methylphenyl)ethane]
- insecticidal activity (in words) [3]: considerably less insecticidal activity than DDT towards other species of insects

SMILES: Clc1ccc(C(c2ccc(Cl)cc2)C(Cl)(Cl)Cl)cc1 [DDT, 1,1,1 trichloro-2,2-bis(p-chlorophenyl)ethane]
- ecological magnification (E.M.) [1]: 84,000 fold
- Biodegradability Index (B.I.) ([1]; total recovered polar/total recovered nonpolar metabolites): 0.015
- biodegradability (in words) [4]: not biodegradable
- susceptibility to MFO enzymes (in words) [4]: do not function on DDT and its metabolic derivatives DDE and DDD
- insecticidal activity (in words) [3]: effective contact or residual insecticide
- lipid solubility (in words) [5]: high lipid solubility
- water solubility (in words) [5]: very low water solubility
- accumulation in animal tissues (in words) [6]: accumulation in the fatty or lipid tissues of animals

SMILES: CCOc1ccc(N)cc1 [C2 H5 OC6 H4 NH2, p-ethoxyaniline]
- Concentration of ethoxyaniline equivalents in Culex (mosquito) ([1]; 33 days): 0.01 ppm
- Concentration of ethoxyaniline equivalents in Gambusia (fish) ([1]; 33 days): 0.03 ppm
- Concentration of ethoxyaniline equivalents in H2O ([1]; H2O, 33 days): 0.053 ppm
- Concentration of ethoxyaniline equivalents in Oedogonium (algae) ([1]; 33 days): 0.42 ppm
- Concentration of ethoxyaniline equivalents in Physa (snail) ([1]; 33 days): 2.556 ppm
- Salt-marsh caterpillar, percent 3H in Excreta [7]: 8.4%
- Salt-marsh caterpillar, percent 3H in Homogenate [7]: 15.0%
- Female housefly, percent 3H in Excreta [8]: 9.1%
- Female housefly, percent 3H in Homogenate [8]: 8.3%
- Mouse liver, percent 3H in homogenate [9]: 13.7%

SMILES: CCOc1ccc(NC(c2ccc(OCC)cc2)C(Cl)(Cl)Cl)cc1 (stereo not drawn) [Compound III, α-trichloromethyl-p-ethoxybenzyl-p-ethoxyaniline]
- Concentration of ethoxyaniline equivalents in Culex (mosquito) ([1]; 33 days): 0.28 ppm
- Concentration of ethoxyaniline equivalents in Gambusia (fish) ([1]; 33 days): 0.04 ppm
- Concentration of ethoxyaniline equivalents in H2O ([1]; H2O, 33 days): 0.055 ppm
- Concentration of ethoxyaniline equivalents in Oedogonium (algae) ([1]; 33 days): 1.09 ppm
- Concentration of ethoxyaniline equivalents in Physa (snail) ([1]; 33 days): 22.68 ppm
- biodegradability (in words) [1]: substantially biodegradable; also recorded: by far superior in both E.M. and B.I
- ecological magnification (E.M.) [1]: 0.7 fold
- Total 3H in Culex (mosquito) (ethoxyaniline equivalents) ([1]; total 3H, Culex, 33 days): 1.0 ppm
- Total 3H in Gambusia (fish) (ethoxyaniline equivalents) ([1]; total 3H, Gambusia, 33 days): 0.30 ppm
- Total 3H in H2O (ethoxyaniline equivalents) ([1]; total 3H, H2O, 33 days): 0.363 ppm
- Total 3H in Oedogonium (algae) (ethoxyaniline equivalents) ([1]; total 3H, Oedogonium, 33 days): 3.03 ppm
- Total 3H in Physa (snail) (ethoxyaniline equivalents) ([1]; total 3H, Physa, 33 days): 36.0 ppm
- LD50 ([10]; Musca domestica, topical, read-out: Topical LD50, Musca domestica Rsp, Alone): 20.5 mg/kg
- Topical LD50, Musca domestica Rsp, with pb ([10]; RSP strain, synergized with piperonyl butoxide, topical): 6.5 μg per g
- SR, Musca domestica Rsp [10, 16]: 3.2
- 3H recovered in excreta ([7]; 4th instar larvae, 0.5 mg fed, 24 hr): 75%
- Salt-marsh caterpillar, percent 3H in Excreta [7]: 2.5%
- Salt-marsh caterpillar, percent 3H in Homogenate [7]: 9.0%
- LC50 Anopheles albimanus larvae [11]: 0.28 ppm
- LD50 ([12]; Phormia regina, read-out: Topical LD50, Phormia regina, Alone): 33.7 mg/kg
- Topical LD50, Phormia regina, with pb ([12]; synergized with piperonyl butoxide): 9.7 μg per g
- Female housefly, percent 3H in Excreta [8]: 22.9%
- Female housefly, percent 3H in Homogenate [8]: 37.6%
- 3H recovered as body homogenate [8, 17]: 65%
- 3H recovered as body wash [8, 17]: 19.2%
- 3H recovered as excreta [8, 17]: 10%
- recovery of the 3H ([8]; female RSP housefly, topical 1.0 μg, 24 hr, total): 94.2%
- metabolic pathway in insect and mammal (in words) ([8]; insects (housefly, caterpillar) and mouse liver homogenate): metabolized in both the insect and the mammal by O-dealkylation to form both mono- and bis- phenols
- Mouse liver, percent 3H in homogenate [9]: 30%
- metabolic pathway (in words) ([9]; mouse liver homogenate, 1 hr): attacked by O-dealkylation to produce either one or both of the monophenolic derivatives
- LD50 ([13]; Musca domestica, topical, read-out: Topical LD50, Musca domestica Snaidm, Alone): 15.5 mg/kg
- Topical LD50, Musca domestica Snaidm, with pb ([13]; SNAIDM strain, synergized with piperonyl butoxide, topical): 4.2 μg per g
- SR, Musca domestica Snaidm [13, 16]: 3.7
- LC50 Culex fatigans larvae [14]: 0.19 ppm

SMILES: CSc1ccc(C(c2ccc(SC)cc2)C(Cl)(Cl)Cl)cc1 [methiochlor, 1,1,1-trichloro-2,2-bis-(p-methiophenyl)ethane]
- susceptibility to MFO enzymes (in words) [4]: readily attacked by MFO enzymes
- insecticidal activity (in words) [3]: considerably less insecticidal activity than DDT towards other species of insects

SMILES: COc1ccc(C(c2ccc(OC)cc2)C(Cl)(Cl)Cl)cc1 [methoxychlor, 1,1,1-trichloro-,2,2-bis(p-methoxyphenyl)ethane]
- susceptibility to MFO enzymes (in words) [4]: readily attacked by MFO enzymes
- insecticidal activity (in words) [3]: considerably less insecticidal activity than DDT towards other species of insects
- accumulation in animal tissues (in words) [6]: not generally accumulated in animal tissues
